In patent publication US9650395B2, “Antibacterial compounds and methods for use” (PTC Therapeutics, Inc., priority 2011, dated 2017):
In brackets after ≈: the same amount, converted by molar mass.

Key:
[1] = test system: Gram-positive Staphylococcus aureus (S. aureus) 29213; assay: Antibacterial activity, microbroth dilution MIC, S. aureus 29213; format: cell-based; conditions: Staphylococcus aureus; S. aureus 29213, microbroth dilution; read-out: MIC, 29213
[2] = test system: resistant K. pneumoniae MXX1232 (MDR clinical isolate); assay: Antibacterial activity, MIC, resistant K. pneumoniae MXX1232; format: cell-based, Klebsiella pneumoniae; conditions: Klebsiella pneumoniae; resistant K. pneumoniae MMX1232, MDR clinical isolate; read-out: MIC MMX1232
[3] = test system: control Gram-negative E. coli 25922 strain; assay: Antibacterial activity, microbroth dilution MIC, E. coli 25922; format: cell-based, Escherichia coli; conditions: Escherichia coli; E. coli 25922, microbroth dilution; read-out: MIC, 25922
[4] = test system: Pseudomonas aeruginosa (P. aeruginosa) 27853; assay: Antibacterial activity, MIC, P. aeruginosa 27853; format: cell-based; conditions: Pseudomonas aeruginosa, P. aeruginosa 27853; read-out: MIC 27853
Source text: (§1) The antibacterial activity from a microbroth dilution method may be presented as the minimum inhibitory concentration (MIC in […]). The MIC value is the lowest concentration of a drug which prevents macroscopically visible bacterial growth under test conditions.
Antibacterial activity of test compounds against the Gram-negative bacterium Pseudomonas aeruginosa (P. aeruginosa) 27853 is shown in Table 5.

[5] = test system: quinolone resistant E. coli LZ3111; assay: Antibacterial activity, MIC, quinolone resistant E. coli LZ3111; format: cell-based, Escherichia coli; conditions: Escherichia coli, read-out: MIC, LZ3111
Source text: as §1
Mutations in these regions are known to confer a high level resistance to the quinolone class of antibiotics.

[6] = test system: Klebsiella pneumoniae (K. pneumoniae) 35657; assay: Antibacterial activity, MIC, K. pneumoniae 35657; format: cell-based; conditions: Klebsiella pneumoniae
[7] = test system: super sensitive Gram-negative Escherichia coli (E. coli) BAS849; assay: Antibacterial activity, microbroth dilution MIC, E. coli BAS849; format: cell-based; conditions: Escherichia coli; E. coli BAS849, microbroth dilution; read-out: MIC, BAS849
[8] = test system: Acinetobacter baumannii (A. baumannii) BAA747; assay: Antibacterial activity, MIC, A. baumannii BAA747; format: cell-based; conditions: Acinetobacter baumannii; A. baumannii BAA747; read-out: MIC BAA747
[9] = test system: resistant A. baumannii MXX2240 (MDR clinical isolate); assay: Antibacterial activity, MIC, resistant A. baumannii MXX2240; format: cell-based, Acinetobacter baumannii; conditions: Acinetobacter baumannii, resistant A. baumannii MMX2240, MDR clinical isolate; read-out: MIC MMX2240

SMILES | MIC [1] | MIC [2] | MIC [3] | MIC [4] | MIC [5] | MIC [6] | MIC [7] | MIC [8] | MIC [9]
CCc1c(-c2ccc(N3CC4(CCCN4)C3)cc2)[nH]c(=O)c(C(=O)O)c1O [Cpd 323, 6-(4-(2,5-diazaspiro[3.4]octan-2-yl)phenyl)-5-ethyl-4-hydroxy-2-oxo-1,2-dihydropyridine-3-carboxylic acid] | 12.5 to 150 mg/L (≈ 33.8 to 406 µM) | 12.5 to 150 mg/L (≈ 33.8 to 406 µM) | 3.5 to 12.5 mg/L (≈ 9.47 to 33.8 µM) | 12.5 to 150 mg/L (≈ 33.8 to 406 µM) | 3.5 to 12.5 mg/L (≈ 9.47 to 33.8 µM) | 12.5 to 150 mg/L (≈ 33.8 to 406 µM) | 1 to 3.5 mg/L (≈ 2.71 to 9.47 µM) | 12.5 to 150 mg/L (≈ 33.8 to 406 µM) | 12.5 to 150 mg/L (≈ 33.8 to 406 µM)
CCc1c(-c2ccc(N3CC4(CNC4)C3)cc2)[nH]c(=O)c(C(=O)O)c1O [Cpd 324, 6-(4-(2,6-diazaspiro[3.3]heptan-2-yl)phenyl)-5-ethyl-4-hydroxy-2-oxo-1,2-dihydropyridine-3-carboxylic acid] | 12.5 to 150 mg/L (≈ 35.2 to 422 µM) | 12.5 to 150 mg/L (≈ 35.2 to 422 µM) | 12.5 to 150 mg/L (≈ 35.2 to 422 µM) | 12.5 to 150 mg/L (≈ 35.2 to 422 µM) | 12.5 to 150 mg/L (≈ 35.2 to 422 µM) | 12.5 to 150 mg/L (≈ 35.2 to 422 µM) | 3.5 to 12.5 mg/L (≈ 9.85 to 35.2 µM) | 12.5 to 150 mg/L (≈ 35.2 to 422 µM) | 12.5 to 150 mg/L (≈ 35.2 to 422 µM)
CCNc1ccc(-c2[nH]c(=O)c(C(=O)O)c(O)c2CC)cc1 [Cpd 325, 5-ethyl-6-(4-(ethylamino)phenyl)-4-hydroxy-2-oxo-1,2-dihydropyridine-3-carboxylic acid] | 12.5 to 150 mg/L (≈ 41.3 to 496 µM) | 12.5 to 150 mg/L (≈ 41.3 to 496 µM) | 3.5 to 12.5 mg/L (≈ 11.6 to 41.3 µM) | 12.5 to 150 mg/L (≈ 41.3 to 496 µM) | 12.5 to 150 mg/L (≈ 41.3 to 496 µM) | 3.5 to 12.5 mg/L (≈ 11.6 to 41.3 µM) | < 1 mg/L | 3.5 to 12.5 mg/L (≈ 11.6 to 41.3 µM) | 12.5 to 150 mg/L (≈ 41.3 to 496 µM)
CCc1c(-c2ccc(NC)cc2)[nH]c(=O)c(C(=O)O)c1O [Cpd 326, 5-ethyl-4-hydroxy-6-(4-(methylamino)phenyl)-2-oxo-1,2-dihydropyridine-3-carboxylic acid] | 12.5 to 150 mg/L (≈ 43.4 to 520 µM) | 12.5 to 150 mg/L (≈ 43.4 to 520 µM) | 3.5 to 12.5 mg/L (≈ 12.1 to 43.4 µM) | 12.5 to 150 mg/L (≈ 43.4 to 520 µM) | 12.5 to 150 mg/L (≈ 43.4 to 520 µM) | 3.5 to 12.5 mg/L (≈ 12.1 to 43.4 µM) | < 1 mg/L | 1 to 3.5 mg/L (≈ 3.47 to 12.1 µM) | 3.5 to 12.5 mg/L (≈ 12.1 to 43.4 µM)
CN(C)c1ccc(-c2[nH]c(=O)c(C(=O)O)c(O)c2CC=O)cc1 [Cpd 327, 6-(4-(dimethylamino)phenyl)-4-hydroxy-2-oxo-5-(2-oxoethyl)-1,2-dihydropyridine-3-carboxylic acid] | 12.5 to 150 mg/L (≈ 39.5 to 474 µM) | 12.5 to 150 mg/L (≈ 39.5 to 474 µM) | 12.5 to 150 mg/L (≈ 39.5 to 474 µM) | 12.5 to 150 mg/L (≈ 39.5 to 474 µM) | 12.5 to 150 mg/L (≈ 39.5 to 474 µM) | 12.5 to 150 mg/L (≈ 39.5 to 474 µM) | 3.5 to 12.5 mg/L (≈ 11.1 to 39.5 µM) | 12.5 to 150 mg/L (≈ 39.5 to 474 µM) | 12.5 to 150 mg/L (≈ 39.5 to 474 µM)
CN(C)c1ccc(-c2[nH]c(=O)c(C(=O)O)c(O)c2CCO)cc1 [Cpd 328, 6-(4-(dimethylamino)phenyl)-4-hydroxy-5-(2-hydroxyethyl)-2-oxo-1,2-dihydropyridine-3-carboxylic acid] | 12.5 to 150 mg/L (≈ 39.3 to 471 µM) | 12.5 to 150 mg/L (≈ 39.3 to 471 µM) | 3.5 to 12.5 mg/L (≈ 11 to 39.3 µM) | 12.5 to 150 mg/L (≈ 39.3 to 471 µM) | 3.5 to 12.5 mg/L (≈ 11 to 39.3 µM) | 3.5 to 12.5 mg/L (≈ 11 to 39.3 µM) | < 1 mg/L | 12.5 to 150 mg/L (≈ 39.3 to 471 µM) | 3.5 to 12.5 mg/L (≈ 11 to 39.3 µM)
CN(C)c1ccc(-c2[nH]c(=O)c(C(=O)O)c(O)c2CC(O)CO)cc1 (stereo not drawn) [Cpd 329, 5-(2,3-dihydroxypropyl)-6-(4-(dimethylamino)phenyl)-4-hydroxy-2-oxo-1,2-dihydropyridine-3-carboxylic acid] | 12.5 to 150 mg/L (≈ 35.9 to 431 µM) | 12.5 to 150 mg/L (≈ 35.9 to 431 µM) | 12.5 to 150 mg/L (≈ 35.9 to 431 µM) | 12.5 to 150 mg/L (≈ 35.9 to 431 µM) | 3.5 to 12.5 mg/L (≈ 10 to 35.9 µM) | 12.5 to 150 mg/L (≈ 35.9 to 431 µM) | 12.5 to 150 mg/L (≈ 35.9 to 431 µM) | 12.5 to 150 mg/L (≈ 35.9 to 431 µM) | 12.5 to 150 mg/L (≈ 35.9 to 431 µM)
C/C=C/c1c(-c2ccc(N(C)C)cc2)[nH]c(=O)c(C(=O)O)c1O [Cpd 330, (E)-6-(4-(dimethylamino)phenyl)-4-hydroxy-2-oxo-5-(prop-1-enyl)-1,2-dihydropyridine-3-carboxylic acid] | 12.5 to 150 mg/L (≈ 39.8 to 477 µM) | 12.5 to 150 mg/L (≈ 39.8 to 477 µM) | 12.5 to 150 mg/L (≈ 39.8 to 477 µM) | 12.5 to 150 mg/L (≈ 39.8 to 477 µM) | 12.5 to 150 mg/L (≈ 39.8 to 477 µM) | 12.5 to 150 mg/L (≈ 39.8 to 477 µM) | 1 to 3.5 mg/L (≈ 3.18 to 11.1 µM) | 12.5 to 150 mg/L (≈ 39.8 to 477 µM) | 12.5 to 150 mg/L (≈ 39.8 to 477 µM)
CN(C)c1ccc(-c2[nH]c(=O)c(C(=O)O)c(O)c2CO)cc1 [Cpd 331, 6-(4-(dimethylamino)phenyl)-4-hydroxy-5-(hydroxymethyl)-2-oxo-1,2-dihydropyridine-3-carboxylic acid] | 12.5 to 150 mg/L (≈ 41.1 to 493 µM) | 12.5 to 150 mg/L (≈ 41.1 to 493 µM) | 12.5 to 150 mg/L (≈ 41.1 to 493 µM) | 12.5 to 150 mg/L (≈ 41.1 to 493 µM) | 3.5 to 12.5 mg/L (≈ 11.5 to 41.1 µM) | 12.5 to 150 mg/L (≈ 41.1 to 493 µM) | 1 to 3.5 mg/L (≈ 3.29 to 11.5 µM) | 12.5 to 150 mg/L (≈ 41.1 to 493 µM) | 12.5 to 150 mg/L (≈ 41.1 to 493 µM)
